A word on the IC50: it is the point on the concentration scale where inhibition reaches its midpoint.

For test [1], the system named is KRas G12D-mediated Phosphorylation of ERK. Put plainly: Inhibition of KRas G12D-mediated Phosphorylation of ERK in AGS cells. In kind it is cell-based. The conditions noted are these: Homo sapiens; AGS cells expressing G12D, 3 hours, phospho-ERK normalized to GAPDH. The method, then:
AGS cells (ATCC CRL-1739) expressing G12D were grown in DMEM medium supplemented with 10% fetal bovine serum, 10 mM HEPES, and Penicillin/Streptomycin. Cells were plated in tissue culture treated 96 well plates at a density of 40,000 cells/well and allowed to attach for 12-14 hours. Diluted compounds were then added in a final concentration of 0.5% DMSO. After 3 hours, the medium was removed, 150 μl of 4.0% formaldehyde was added and the plates incubated at room temperature for 20 minutes. The plates were washed with PBS, and permeabilized with 150 μL of ice cold 100% methanol for 10 minutes. Non-specific antibody binding to the plates was blocked using 100 μL Licor blocking buffer (Li-Cor Biotechnology, Lincoln NE) for 1 hour at room temperature.
The amount of phospho-ERK was determined using an antibody specific for the phosphorylated form of ERK and compared to the amount of GAPDH. Primary antibodies used for the detection were added as follows: Phospho-ERK(Cell Signaling cs-9101) diluted 1:500 and GAPDH(Millipore MAB374) diluted 1:5000 in Licor block+0.05% Tween 20. The plates were incubated for 2 hours at room temperature. The plates were washed with PBS+0.05% Tween 20.
Secondary antibodies used to visualize primary antibodies were added as follows: Anti-rabbit-680 diluted 1:1000 and Anti-mouse-800 diluted 1:1000 both in Licor block+0.05% Tween20, and were incubated for 1 hour at room temperature. The plates were washed with PBS+0.05% Tween 20. A 100 μl aliquot of PBS was added to each well and the plates were read on a Li-Cor Odyssey CLX plate reader.
The phospho-ERK(Thr202/Tyr204 signal was normalized to the GAPDH signal for each well and percent of DMSO control values were calculated. IC50 values were generated using a 4-parameter fit of the dose response curve.

A further test deals with KRas G12D (Homo sapiens, UniProt P01116, G12D). Put plainly: KRas G12D Binding Assay (TR-FRET displacement of labeled tracer). Further details: corresponding to amino acids 1:169, produced at Array BioPharma; biotin (protein is biotinylated). Particulars: TR-FRET displacement of Cy5 labelled tracer, biotinylated GDP-loaded KRAS G12D (aa 1:169), 60 minute incubation at 22° C. The method, then:
This Example illustrates that exemplary compounds of the present invention bind to KRas G12D and are capable of displacing a labeled tracer ligand occupying the KRas G12D binding site.
The ability of a compound to bind to KRAS G12D was measured using a TR-FRET displacement assay. Biotinylated GDP-loaded recombinant human KRAS G12D (corresponding to amino acids 1:169, produced at Array BioPharma) was incubated with a custom-made Cy5 labelled tracer, europium labelled streptavidin and compound (2% DMSO final) in buffer (50 mM HEPES [pH 7.5], 5 mM MgCl2, 0.005% Tween-20 & 1 mM DTT). After a 60 minute incubation at 22° C., the reaction was measured using a PerkinElmer EnVision multimode plate reader via TR-FRET dual wavelength detection, and the percent of control (POC) calculated using a ratiometric emission factor. […] The POC values were fit to a 4-parameter logistic curve and the IC50 value was determined as the concentration where the curve crosses 50 POC.
A general note: In TR-FRET formats the signal depends on donor and acceptor labels being close together.

Structures are written as SMILES.

Chain of KRas G12D (P01116 1-169 isoform P01116-2 G12D): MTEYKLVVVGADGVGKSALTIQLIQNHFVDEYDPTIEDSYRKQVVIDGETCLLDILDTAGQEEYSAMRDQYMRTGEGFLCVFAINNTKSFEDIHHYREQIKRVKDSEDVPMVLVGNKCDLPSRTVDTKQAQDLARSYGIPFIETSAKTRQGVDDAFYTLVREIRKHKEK

`CNC(=O)OCC1CCC2(COc3nc4c(c(N5C[C@H]6CC[C@@H](C5)N6)n3)CCN(c3cccc5cccc(Cl)c35)C4)CCCN12` (mixture of isomers) [Example 100, (7a-(((4-((1R,5S)-3,8-diazabicyclo[3.2.1]octan-3-yl)-7-(8-chloronaphthalen-1-yl)-5,6,7,8-tetrahydropyrido[3,4-d]pyrimidin-2-yl)oxy)methyl)hexahydro-1H-pyrrolizin-3-yl)methyl methylcarbamate]: the IC50 in test [1] was determined as 1310 nM; on KRas G12D it was 9.7 nM.
For `COC[C@@H]1C[C@@H]2CN(c3nc(OC[C@@H]4CCCN4C)nc4c3CCN(c3cccc5cccc(Cl)c35)C4)C[C@H]1N2` (single isomer, unassigned) [Example 93] the same measures were > 16700 nM and 360 nM.
On the same counts, the results for `CN1CCC[C@H]1COc1nc2c(c(N3C[C@H]4C[C@H](O)[C@@H](C3)N4)n1)CCN(c1cccc3cccc(Cl)c13)C2` [Example 96, (1R,5R,6S)-3-(7-(8-chloronaphthalen-1-yl)-2-(((S)-1-methylpyrrolidin-2-yl)methoxy)-5,6,7,8-tetrahydropyrido[3,4-d]pyrimidin-4-yl)-3,8-diazabicyclo[3.2.1]octan-6-ol] are > 16700 nM and 331 nM.
With `Oc1cc(N2CCc3c(nc(OCC45CCCN4CCC5)nc3N3C[C@H]4CC[C@@H](C3)N4)C2)c2c(Cl)c(F)ccc2c1` [Example 116, 4-(4-((1R,5S)-3,8-diazabicyclo[3.2.1]octan-3-yl)-2-((hexahydro-1H-pyrrolizin-7a-yl)methoxy)-5,6-dihydropyrido[3,4-d]pyrimidin-7(8H)-yl)-5-chloro-6-fluoronaphthalen-2-ol], the IC50 in test [1] came to 46 nM; at KRas G12D, 0.5 nM.
For `CCc1c(F)ccc2cc(O)cc(N3CCc4c(nc(OCC56CCCN5CCC6)nc4N4C[C@H]5CC[C@@H](C4)N5)C3)c12` [Example 119, 4-(4-((1R,5S)-3,8-diazabicyclo[3.2.1]octan-3-yl)-2-((hexahydro-1H-pyrrolizin-7a-yl)methoxy)-5,6-dihydropyrido[3,4-d]pyrimidin-7(8H)-yl)-5-ethyl-6-fluoronaphthalen-2-ol] the same measures were 7 nM and 1.6 nM.
For `CCc1cccc2cccc(N3CCc4c(nc(OC[C@@]56CCCN5C[C@H](F)C6)nc4[C@H]4C[C@H]5CC[C@@H](C4)N5)C3)c12` [Example 121, 4-((1R,3r,5S)-8-azabicyclo[3.2.1]octan-3-yl)-7-(8-ethylnaphthalen-1-yl)-2-(((2R,7aS)-2-fluorotetrahydro-1H-pyrrolizin-7a(5H)-yl)methoxy)-5,6,7,8-tetrahydropyrido[3,4-d]pyrimidine], the IC50 in test [1] was 2360 nM; on KRas G12D it was 8.7 nM.
For `Oc1cc(N2CCc3c(nc(OCC45CCCN4C[C@H](F)C5)nc3N3CC4CCC(C3)N4)C2)c2c(Cl)cccc2c1` (mixture of isomers) [Example 49, 4-(4-((1R,5S)-3,8-diazabicyclo[3.2.1]octan-3-yl)-2-((2-fluorotetrahydro-1H-pyrrolizin-7a(5H)-yl)methoxy)-5,8-dihydropyrido[3,4-d]pyrimidin-7(6H)-yl)-5-chloronaphthalen-2-ol] the same measures were 77 nM and 0.5 nM.
On the same counts, the results for `CCc1cccc2cccc(N3CCc4c(nc(OCC56CCCN5[C@@H](COC(=O)N(C)C)CC6)nc4N4CC5CCC(C4)N5)C3)c12` (stereo partly drawn) [Example 13, (7a-(((4-((1R,5S)-3,8-diazabicyclo[3.2.1]octan-3-yl)-7-(8-ethylnaphthalen-1-yl)-5,6,7,8-tetrahydropyrido[3,4-d]pyrimidin-2-yl)oxy)methyl)hexahydro-1H-pyrrolizin-3-yl)methyl dimethylcarbamate (trans enantiomers)] are 261 nM and 1.3 nM.

(Values after patent publication US12686692B2, “KRas G12D inhibitors” (Mirati Therapeutics, Inc., priority 2020, dated 2026).)
